# Source: ChEMBL document CHEMBL4177521, “Therapeutic Potential of Fatty Acid Amide Hydrolase, Monoacylglycerol Lipase, and N-Acylethanolamine Acid Amidase Inhibitors” (J Med Chem, 2017)
# What was measured:
# [1] = target: T1, Monoglyceride lipase (Homo sapiens, UniProt Q99685); assay: Inhibition of human MAGL
# T1 sequence (Q99685 whole entry): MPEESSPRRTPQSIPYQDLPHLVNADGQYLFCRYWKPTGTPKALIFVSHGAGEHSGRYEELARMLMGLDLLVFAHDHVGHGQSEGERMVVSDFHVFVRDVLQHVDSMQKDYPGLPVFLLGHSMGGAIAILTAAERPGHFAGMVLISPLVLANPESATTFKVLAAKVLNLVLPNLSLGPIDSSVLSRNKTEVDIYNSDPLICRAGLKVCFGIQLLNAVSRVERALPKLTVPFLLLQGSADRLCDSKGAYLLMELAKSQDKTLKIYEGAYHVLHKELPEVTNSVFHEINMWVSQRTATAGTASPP
# [2] = target: Cannabinoid receptor 1 (Homo sapiens, UniProt P21554); assay: Antagonist activity at CB1R (unknown origin); format: functional
# [3] = target: T2, N-acylethanolamine-hydrolyzing acid amidase (Rattus norvegicus, UniProt Q5KTC7); assay: Inhibition of rat NAAA expressed in HEK293 cells by LC/MS analysis; format: cell-based
# T2 sequence (Q5KTC7 whole entry): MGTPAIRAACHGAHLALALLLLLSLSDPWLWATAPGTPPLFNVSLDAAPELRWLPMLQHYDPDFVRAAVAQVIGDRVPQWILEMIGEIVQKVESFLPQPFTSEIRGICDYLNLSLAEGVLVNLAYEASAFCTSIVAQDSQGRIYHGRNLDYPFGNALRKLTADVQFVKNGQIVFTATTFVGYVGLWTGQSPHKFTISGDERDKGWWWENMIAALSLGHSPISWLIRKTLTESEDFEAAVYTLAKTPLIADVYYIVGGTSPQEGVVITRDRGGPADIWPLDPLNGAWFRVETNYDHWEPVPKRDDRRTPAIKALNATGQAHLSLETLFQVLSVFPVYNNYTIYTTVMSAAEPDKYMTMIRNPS
# [4] = target: T3, Fatty-acid amide hydrolase 1 (Rattus norvegicus, UniProt P97612); assay: Inhibition of rat FAAH expressed in HEK293 cells by LC/MS analysis; format: cell-based
# T3 sequence (P97612 whole entry): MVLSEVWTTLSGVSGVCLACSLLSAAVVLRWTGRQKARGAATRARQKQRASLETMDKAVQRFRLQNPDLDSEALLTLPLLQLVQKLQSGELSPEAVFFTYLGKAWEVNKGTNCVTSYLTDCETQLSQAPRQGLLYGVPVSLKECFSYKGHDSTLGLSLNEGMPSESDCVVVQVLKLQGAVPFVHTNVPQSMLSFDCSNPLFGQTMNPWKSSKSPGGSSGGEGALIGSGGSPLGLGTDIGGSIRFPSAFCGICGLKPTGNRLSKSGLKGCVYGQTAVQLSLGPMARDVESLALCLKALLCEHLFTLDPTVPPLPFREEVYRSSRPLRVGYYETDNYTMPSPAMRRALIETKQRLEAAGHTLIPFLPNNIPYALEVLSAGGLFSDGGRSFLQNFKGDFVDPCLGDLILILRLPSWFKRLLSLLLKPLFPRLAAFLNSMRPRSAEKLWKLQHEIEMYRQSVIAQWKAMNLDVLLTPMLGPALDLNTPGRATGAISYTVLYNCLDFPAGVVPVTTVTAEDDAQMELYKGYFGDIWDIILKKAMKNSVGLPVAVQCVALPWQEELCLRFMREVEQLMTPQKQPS
# [5] = Half life in mouse plasma; format: ADME, cell-free
# [6] = Half life in CD1 mouse plasma at 3 mg/kg, iv; format: ADME, organism-based
# [7] = Half life in mouse liver microsomes; format: ADME, microsome
# [8] = Half life in rat liver microsomes; format: ADME, microsome
# [9] = Cmax in CD1 mouse plasma at 3 mg/kg, iv; format: ADME, organism-based; set-up: dose 3 mg/kg, route intravenous; settings: in vivo
# [10] = Half life in rat plasma; format: ADME, cell-free
# [11] = target: T4, Fatty-acid amide hydrolase 1 (Homo sapiens, UniProt O00519); assay: Inhibition of FAAH (unknown origin)
# T4 sequence (O00519 whole entry): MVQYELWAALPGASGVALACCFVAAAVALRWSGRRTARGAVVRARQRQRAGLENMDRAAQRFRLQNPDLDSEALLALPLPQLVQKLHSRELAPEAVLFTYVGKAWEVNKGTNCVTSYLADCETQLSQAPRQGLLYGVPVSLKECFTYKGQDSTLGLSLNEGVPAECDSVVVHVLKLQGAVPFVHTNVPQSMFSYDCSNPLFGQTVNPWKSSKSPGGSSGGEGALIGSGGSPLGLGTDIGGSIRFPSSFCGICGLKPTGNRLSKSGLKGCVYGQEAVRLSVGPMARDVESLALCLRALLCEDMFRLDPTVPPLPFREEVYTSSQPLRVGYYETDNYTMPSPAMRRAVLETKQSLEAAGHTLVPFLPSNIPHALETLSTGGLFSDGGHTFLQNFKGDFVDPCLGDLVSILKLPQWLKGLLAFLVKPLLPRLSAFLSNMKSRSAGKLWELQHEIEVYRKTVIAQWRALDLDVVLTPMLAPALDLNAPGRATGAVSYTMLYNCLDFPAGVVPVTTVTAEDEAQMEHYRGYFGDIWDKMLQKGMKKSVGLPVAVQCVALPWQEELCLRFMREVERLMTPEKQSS
# [12] = Half life in monkey at 10 mg/kg, po or 1 mg/kg, iv; format: ADME, organism-based, Macaca mulatta; settings: rhesus monkey, in vivo
# [13] = Oral bioavailability in monkey at 10 mg/kg; format: ADME, organism-based, Macaca mulatta; settings: rhesus monkey, in vivo
# [14] = target: T5, Fatty-acid amide hydrolase 1 (Mus musculus, UniProt O08914); assay: Inhibition of CD1 mouse FAAH
# T5 sequence (O08914 whole entry): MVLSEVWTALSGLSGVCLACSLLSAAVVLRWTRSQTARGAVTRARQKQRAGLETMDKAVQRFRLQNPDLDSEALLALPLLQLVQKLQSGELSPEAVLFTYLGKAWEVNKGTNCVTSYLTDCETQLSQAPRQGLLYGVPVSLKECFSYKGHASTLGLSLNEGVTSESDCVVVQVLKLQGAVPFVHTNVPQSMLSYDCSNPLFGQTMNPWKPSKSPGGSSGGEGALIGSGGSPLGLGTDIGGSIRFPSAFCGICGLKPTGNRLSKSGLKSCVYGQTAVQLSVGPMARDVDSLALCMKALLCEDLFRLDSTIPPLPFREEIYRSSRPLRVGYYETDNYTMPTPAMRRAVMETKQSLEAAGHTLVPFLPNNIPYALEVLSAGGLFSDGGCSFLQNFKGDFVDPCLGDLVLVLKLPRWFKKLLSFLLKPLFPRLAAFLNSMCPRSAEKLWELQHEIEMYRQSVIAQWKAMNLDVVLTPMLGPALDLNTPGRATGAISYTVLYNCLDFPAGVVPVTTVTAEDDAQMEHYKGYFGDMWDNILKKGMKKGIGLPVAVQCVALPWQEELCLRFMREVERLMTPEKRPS
# [15] = target: T6, N-acylethanolamine-hydrolyzing acid amidase (Homo sapiens, UniProt Q02083); assay: Inhibition of NAAA (unknown origin)
# T6 sequence (Q02083 whole entry): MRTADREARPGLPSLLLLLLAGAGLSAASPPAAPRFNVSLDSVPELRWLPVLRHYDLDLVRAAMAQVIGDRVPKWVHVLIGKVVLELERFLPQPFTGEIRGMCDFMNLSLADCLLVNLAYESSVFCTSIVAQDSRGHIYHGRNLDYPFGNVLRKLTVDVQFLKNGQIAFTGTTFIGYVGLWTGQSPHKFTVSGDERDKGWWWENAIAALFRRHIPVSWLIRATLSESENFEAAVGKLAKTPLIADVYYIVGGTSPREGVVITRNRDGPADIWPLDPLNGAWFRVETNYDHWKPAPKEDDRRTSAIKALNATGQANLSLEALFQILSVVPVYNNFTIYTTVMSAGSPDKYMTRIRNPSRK
# [16] = target: T3, Fatty-acid amide hydrolase 1; assay: Inhibition of Sprague-Dawley rat brain FAAH using [14C]anandamide as substrate by liquid scintillation counting method
# [17] = target: T5, Fatty-acid amide hydrolase 1; assay: Inhibition of mouse brain membrane FAAH preincubated for 10 mins followed by 14C-oleamide substrate addition measured up to 60 mins by TLC analysis
# Chain of Cannabinoid receptor 1 (P21554 whole entry): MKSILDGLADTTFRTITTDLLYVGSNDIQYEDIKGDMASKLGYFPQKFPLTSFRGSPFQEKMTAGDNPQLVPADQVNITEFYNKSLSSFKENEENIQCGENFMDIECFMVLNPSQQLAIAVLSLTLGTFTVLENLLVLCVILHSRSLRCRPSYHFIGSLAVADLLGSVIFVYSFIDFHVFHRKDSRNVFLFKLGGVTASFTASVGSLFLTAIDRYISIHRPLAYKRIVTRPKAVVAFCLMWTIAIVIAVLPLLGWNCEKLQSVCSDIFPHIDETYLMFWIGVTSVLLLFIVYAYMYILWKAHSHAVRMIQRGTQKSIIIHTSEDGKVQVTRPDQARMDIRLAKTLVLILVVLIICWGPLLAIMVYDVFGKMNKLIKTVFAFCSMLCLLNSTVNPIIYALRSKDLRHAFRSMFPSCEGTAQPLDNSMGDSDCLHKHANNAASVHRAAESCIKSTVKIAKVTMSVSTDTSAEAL
smiles,measurement,setting,value
CCCCCCCCCCCCCCCN=C=S,IC50,[1],> 10000 nM
same,IC50,[2],> 10000 nM
O=C(CCc1ccc(-c2ccccc2)cc1)N1CCCC1,IC50,[3],2120 nM
same,IC50,[4],> 100000 nM
O=C(N[C@H]1CNC1=O)OCCCCC1CCCCC1,t1/2,[5],41 min
same,half-life,[6],15 min
same,half-life,[7],< 5 min
same,half-life,[8],< 5 min
same,Cmax,[9],1610 ng/mL
same,t1/2,[10],12 min
COc1cc(NC(=O)C(=O)c2c(C)n(Cc3ccc(Cl)cc3)c3ccc(C)cc23)ccn1,IC50,[11],10 nM
same,IC50,[2],> 1000 nM
same,half-life,[12],1020 to 1200 min
same,bioavailability,[13],14 to 21%
C=C(OC(=O)N1CCCCC1)c1ccc(-c2ccccc2)cc1,IC50,[14],9 nM
S=C=NCCCCCCCCCCc1ccccc1,IC50,[11],> 100000 nM
same,IC50,[15],30 nM
CCCCCCCCCCCCCCCCS(=O)(=O)F [HEXADECANESULFONYL FLUORIDE],IC50,[16],13 nM
CN(C)C(=O)n1nnnc1Cc1ccc(-c2ccccc2)cc1,IC50,[17],12.4 nM
